In patent US20050020630A1, “Cycloalkyl and heterocycloalkyl substituted benzothiophenes as therapeutic agents” (priority 2003, published 2005) one finds IC50 data, which are given here for 26 molecules.

For the experiment, the target named is T1, PI3Kγ (Homo sapiens, UniProt P48736).
T1 construct: HA; made in house; host or cells: Spodoptera frugiperda (Sf9) cells, baculovirus co-infection
T1 sequence (P48736 whole entry, species assumed): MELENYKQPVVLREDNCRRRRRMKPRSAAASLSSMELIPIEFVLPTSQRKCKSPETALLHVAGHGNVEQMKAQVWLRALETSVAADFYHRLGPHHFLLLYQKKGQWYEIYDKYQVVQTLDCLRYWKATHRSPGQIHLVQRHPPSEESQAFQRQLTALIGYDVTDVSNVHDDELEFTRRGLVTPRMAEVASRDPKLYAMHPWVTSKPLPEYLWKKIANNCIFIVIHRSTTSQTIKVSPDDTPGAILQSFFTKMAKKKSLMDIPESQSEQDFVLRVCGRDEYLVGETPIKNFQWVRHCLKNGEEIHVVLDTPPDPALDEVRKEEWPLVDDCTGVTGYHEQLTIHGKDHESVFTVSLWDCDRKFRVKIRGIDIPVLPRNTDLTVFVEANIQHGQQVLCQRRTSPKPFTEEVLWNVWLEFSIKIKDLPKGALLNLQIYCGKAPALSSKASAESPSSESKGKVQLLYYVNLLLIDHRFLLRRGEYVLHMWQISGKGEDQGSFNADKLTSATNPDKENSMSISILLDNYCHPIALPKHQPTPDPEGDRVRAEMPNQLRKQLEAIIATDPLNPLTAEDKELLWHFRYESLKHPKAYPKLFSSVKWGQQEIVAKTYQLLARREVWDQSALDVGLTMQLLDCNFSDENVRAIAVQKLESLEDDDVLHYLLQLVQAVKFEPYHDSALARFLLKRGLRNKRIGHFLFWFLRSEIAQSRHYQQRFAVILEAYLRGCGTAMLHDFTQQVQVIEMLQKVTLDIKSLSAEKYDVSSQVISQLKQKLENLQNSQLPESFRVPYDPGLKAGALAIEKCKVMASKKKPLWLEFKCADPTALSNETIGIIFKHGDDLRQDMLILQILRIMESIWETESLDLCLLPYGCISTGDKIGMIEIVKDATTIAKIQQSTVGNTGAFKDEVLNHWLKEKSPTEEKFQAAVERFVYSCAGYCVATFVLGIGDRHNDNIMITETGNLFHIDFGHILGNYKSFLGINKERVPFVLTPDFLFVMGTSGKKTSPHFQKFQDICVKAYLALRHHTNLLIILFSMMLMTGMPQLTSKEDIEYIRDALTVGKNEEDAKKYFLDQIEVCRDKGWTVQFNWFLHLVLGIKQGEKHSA
T1 sequence (Q8WYR1 whole entry partner, species assumed): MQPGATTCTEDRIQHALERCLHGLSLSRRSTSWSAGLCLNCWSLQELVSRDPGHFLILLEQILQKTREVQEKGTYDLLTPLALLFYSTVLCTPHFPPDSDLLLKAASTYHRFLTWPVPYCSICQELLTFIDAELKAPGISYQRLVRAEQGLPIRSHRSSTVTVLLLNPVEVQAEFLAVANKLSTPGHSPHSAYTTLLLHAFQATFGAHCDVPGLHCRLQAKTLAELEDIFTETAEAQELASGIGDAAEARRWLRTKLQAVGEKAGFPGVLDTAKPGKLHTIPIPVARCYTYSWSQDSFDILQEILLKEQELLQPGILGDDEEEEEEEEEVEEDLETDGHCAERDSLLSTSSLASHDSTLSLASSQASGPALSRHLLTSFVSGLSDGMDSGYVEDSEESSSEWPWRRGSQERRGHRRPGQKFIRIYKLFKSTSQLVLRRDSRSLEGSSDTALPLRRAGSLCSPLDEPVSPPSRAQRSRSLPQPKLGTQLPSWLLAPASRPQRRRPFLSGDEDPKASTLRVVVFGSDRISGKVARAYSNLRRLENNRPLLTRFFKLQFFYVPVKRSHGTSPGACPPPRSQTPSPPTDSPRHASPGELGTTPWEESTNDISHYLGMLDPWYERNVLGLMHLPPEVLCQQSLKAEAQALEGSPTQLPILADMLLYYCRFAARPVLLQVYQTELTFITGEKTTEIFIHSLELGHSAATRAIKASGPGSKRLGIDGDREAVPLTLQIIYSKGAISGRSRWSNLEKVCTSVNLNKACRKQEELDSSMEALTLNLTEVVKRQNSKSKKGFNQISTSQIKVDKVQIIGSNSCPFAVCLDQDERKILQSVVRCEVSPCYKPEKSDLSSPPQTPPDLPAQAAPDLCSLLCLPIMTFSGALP
The experiment in a line: PI3Kγ In Vitro Kinase Assay. The settings on record: purified recombinant p101/p110 γ protein with G protein β1/γ2 subunits; 20 μM ATP, 25 μM PIP2; 20 minutes at room temperature; radioactive PIP3 readout. It is filed as biochemical. As for the experimental part: Spodtera frugiperda cells, grown in ESF921 media, were coinfected with baculovirus expressing a glu-tagged p101 and baculovirus expressing an HA-tagged p110γ, at a 3:1 ratio of p101 baculovirus to p110γ baculovirus. Sf9 cells were grown to 1×10^7 total cells/mL in 10 L bioreactors and harvested 48-72 hours post infection. Samples of infected cells were then tested for expression of p101/p110 γ PI3 kinase by immunoprecipitation and Western Blot analysis methods (see below). To purify PI3Kγ, 4 volumes of room temperature hypotonic lysis buffer (1 mM MgCl2, 1 mM DTT, 5 mM EGTA, 1 mM Pefabloc, 0.5 μM aprotinin, 5 μM leupeptin, 2 μM pepstatin, 5 μM E64, pH 8) per gram of cell paste, was poured onto frozen cell pellets with stirring, then lysed in a nitrogen “bomb” at 400 psi (599HC […], Parr Instrument Co, Moline, Ill.). NaCl was added to 150 mM, and sodium cholate was added to 1% and mixed for another 45 minutes. The lysates were clarified by centrifugation for 25 minutes at 14,000 rpm. The lysates were then loaded over anti-glu-linked Protein-G Sepaharose beads (Covance Research Products, Richmond, Calif.) using 20 mL resin/50 g cell paste. The column was washed with 15 volumes of wash buffer (1 mM DTT, 0.2 mM EGTA, 1 mM Pefabloc, 0.5 μM aprotinin, 5 μM leupeptin, 2 μM pepstatin, 5 μM E64, 150 mM NaCl, 1% sodium cholate, pH 8). PI3Kγ was eluted with 6 column volumes of wash buffer that contain 100 μg/mL of a peptide that competes for binding of the glu tag. The column fractions with the eluted protein (determined by taking OD280 readings) were collected and dialyzed in 0.2 mM EGTA, 1 mM DTT, 1 mM Pefabloc, 5 μM leupeptin, 0.5% sodium cholate, 150 mM NaCl, and 50% glycerol, pH 8. The fractions were stored at -80° C. until further use. Spodtera frugiperda cells were coinfected with baculovirus expressing a glu-tagged G protein β1 and baculovirus expressing a G protein β2, at a 1:1 ratio of glu-tagged G protein β1 baculovirus to G protein β2 baculovirus. Sf9 cells are grown in 10 L bioreactors and harvested 48-72 hours post infection. Samples of infected cells were tested for G protein β1/β2 expression by Western Blot analysis, as described below. Cell lysates were homogenized and loaded onto a column of glu-tagged beads as in Biological Example 1 and competed off the column with a glu peptide and processed as described in Biological Example 1. The inhibitory properties of the compounds in Table 1 were assayed in an in vitro PI3K assay. In a 96-well polypropylene plate, each well was spotted with 2 μL of 50 times the desired final concentration of compound in DMSO. Purified recombinant p101/p110 γ protein (0.03 μg; 2.7 nM) and G protein β1/γ2 subunits (0.09 μg; 57.7 nM) for each reaction was combined in the assay buffer (30 mM HEPES, 100 mM NaCl, 1 mM EGTA, and 1 mM DTT). ATP and [γ-^32P-ATP] (0.09 μCi) were added to this mixture so that the final ATP concentration in the reaction was 20 μM. Lipid micelles were formed by sonicating phosphatidylinositol-4,5-diphosphate (PIP2), phosphatidylethanolamine (PE), and Na-cholate in the assay buffer for 10 minutes, adding MgCl2 and incubating on ice for 20 minutes, for final concentrations of 25 μM PIP2, 300 μM PE, 0.02% Na-cholate, and 10 mM MgCl2 in the reaction. The reactions were started by adding equal volumes lipid and enzyme mixture in a total volume of 50 μL, allowed to run for 20 minutes at room temperature, and stopped with 100 μL 75 mM H3PO4. The lipid product was transferred to a glass fiber filter plate and washed with 75 mM H3PO4 several times. The presence of radioactive lipid product (PIP3) was measured by adding Wallac Optiphase mix to each well and counting in a Wallac 1450 Trilux plate reader (PerkinElmer Life Sciences Inc., Boston, Mass. 02118). The IC50 for each compound tested is reported in μM in Table 1: […]
In general, IC50 refers to the concentration that gives 50% inhibition. “3-Cycloheptylmethoxy-5,6-dimethoxy-benzo[b]thiophene-2-carboxylic acid (1H-tetrazol-5-yl)-amide [Example 42]”: the concentration for half-maximal inhibition (IC50) worked out at 36 nM. The figure for `COc1cc2sc(C(=O)Nc3nnn[nH]3)c(OCCCC3CCCCC3)c2cc1OC` [Example 36, 3-(3-Cyclohexyl-propoxy)-5,6-dimethoxy-benzo[b]thiophene-2-carboxylic acid (1H-tetrazol-5-yl)-amide] is 23 nM; for `COc1cc2c(OC3CCCC(C)(C)C3)c(C(=O)Nc3nn[nH]n3)sc2cc1C` (centres unmarked) [Example 5, 3-(3,3-Dimethyl-cyclohexyloxy)-5-methoxy-6-methyl-benzo[b]thiophene-2-carboxylic acid (2H-tetrazol-5-yl)-amide] it is 8 nM; for `COc1cc2c(OC3CCN(C(C)=O)CC3)c(C(=O)Nc3nn[nH]n3)sc2cc1C` [Example 16, 3-(1-Acetyl-piperidin-4-yloxy)-5-methoxy-6-methyl-benzo[b]thiophene-2-carboxylic acid (2H-tetrazol-5-yl)-amide] it is 25 nM. With `COc1cc2sc(C(=O)Nc3nnn[nH]3)c(OC3CCC(C)C(C)C3)c2cc1OC` (centres unmarked) [Example 45, 3-(3,4-Dimethyl-cyclohexyloxy)-5,6-dimethoxy-benzo[b]thiophene-2-carboxylic acid (1H-tetrazol-5-yl)-amide], the IC50 turned out to be 52 nM. As for `COc1cc2sc(C(=O)Nc3nnn[nH]3)c(OCCC3CC3)c2cc1OC` [Example 19, 3-(2-Cyclopropyl-ethoxy)-5,6-dimethoxy-benzo[b]thiophene-2-carboxylic acid (1H-tetrazol-5-yl)-amide], the figure is 371 nM; as for `COc1cc2c(OC3CCCC(C)C3)c(C(=O)Nc3nn[nH]n3)sc2cc1C` (single isomer, unassigned) [Example 2, 5-Methoxy-6-methyl-3-(3-methyl-cyclohexyloxy)-benzo[b]thiophene-2-carboxylic acid (2H-tetrazol-5-yl)-amide], 24 nM. The figure for `COc1cc2c(OC3CCNCC3)c(C(=O)Nc3nn[nH]n3)sc2cc1C` [Example 12, 5-Methoxy-6-methyl-3-(piperidiny-4yloxy)-benzo[b]thiophene-2-carboxylic acid (2H-tetrazol-5-yl)amide] is 715 nM; for `COc1cc2sc(C(=O)Nc3nnn[nH]3)c(OC3CCOCC3)c2cc1OC` [Example 41, 5,6-Dimethoxy-3-(tetrahydro-pyran-4-yloxy)-benzo[b]thiophene-2-carboxylic acid (1H-tetrazol-5-yl)-amide] it is 83 nM; for “5,6-Dimethoxy-3-(3-methyl-oxetan-3-ylmethylmethoxy)-benzo[b]thiophene-2-carboxylic acid (1H-tetrazol-5-yl)-amide [Example 25]” it is 445 nM. Turning to `COc1cc2sc(C(=O)Nc3nnn[nH]3)c(OC3CC(C)CC(C)C3)c2cc1OC` (centres unmarked) [Example 24, 3-(3,5-dimethyl-cyclohexyloxy)-5,6-dimethoxy-benzo[b]thiophene-2-carboxylic acid (2H-tetrazol-5-yl)-amide], the IC50 worked out at 103 nM. The figure for `COc1cc2sc(C(=O)Nc3nnn[nH]3)c(OC3CCC(C)C3)c2cc1OC` (centres unmarked) [Example 31, 5,6-Dimethoxy-3-(3-methyl-cyclopentyloxy)-benzo[b]thiophene-2-carboxylic acid (1H-tetrazol-5-yl)-amide] is 63 nM. `COc1cc2c(OC3CCCN(C(=O)OC(C)(C)C)C3)c(C(=O)Nc3nn[nH]n3)sc2cc1C` (centres unmarked) [Example 14]: the IC50 was 53 nM. For the molecule `COc1cc2sc(C(=O)Nc3nnn[nH]3)c(OCC3(C)CC3)c2cc1OC` [Example 37, 5,6-Dimethoxy-3-(1-methyl-cyclopropylmethoxy)-benzo[b]thiophene-2-carboxylic acid (1H-tetrazol-5-yl)-amide], the IC50 came to 51 nM. As for `COc1cc2c(OC3CCN(Cc4ccccc4)CC3)c(C(=O)Nc3nn[nH]n3)sc2cc1C` [Example 9, 3-(1-Benzyl-piperidin-4-yloxy)-5-methoxy-6-methyl-benzo[b]thiophene-2-carboxylic acid (2H-tetrazol-5-yl)-amide], the figure is 250 nM; as for `COc1cc2sc(C(=O)Nc3nnn[nH]3)c(OC3CCOC3)c2cc1OC` (centres unmarked) [Example 27, 5,6-Dimethoxy-3-(tetrahydro-furan-3-yloxy)-benzo[b]thiophene-2-carboxylic acid (1H-tetrazol-5-yl)-amide], 575 nM. The figure for `COc1cc2sc(C(=O)Nc3nnn[nH]3)c(OC3CCCCCC3)c2cc1OC` [Example 39, 3-Cycloheptyloxy-5,6-dimethoxy-benzo[b]thiophene-2-carboxylic acid (1H-tetrazol-5-yl)-amide] is 37 nM.

With `COc1cc2sc(C(=O)Nc3nnn[nH]3)c(OCC3CC3)c2cc1OC` [Example 35, 3-Cyclopropylmethoxy-5,6-dimethoxy-benzo[b]thiophene-2-carboxylic acid (1H-tetrazol-5-yl)-amide], the IC50 was found to be 350 nM. As for `COc1cc2sc(C(=O)Nc3nnn[nH]3)c(OCC3C4CCC(C4)C3C)c2cc1OC` (centres unmarked) [Example 29, 5,6 Dimethoxy-3-(3-methyl-bicyclo[2.2.1]hept-2-ylmethoxy)-benzo[b]thiophene-2-carboxylic acid (1H-tetrazol-5-yl)-amide], the figure is 14 nM.

Turning to `COc1cc2sc(C(=O)Nc3nn[nH]n3)c(OCC3CC3(Cl)Cl)c2cc1OC` (centres unmarked) [Example 20, 3-(2,2-Dichloro-cyclopropylmethoxy)-5,6-dimethoxy-benzo[b]thiophene-2-carboxylic acid (2H-tetrazol-5-yl)-amide], the IC50 was determined as 453 nM. As for `COc1cc2c(OCC3(C)CC3)c(C(=O)Nc3nn[nH]n3)sc2cc1C` [Example 18, 5-Methoxy-6-methyl-3-(1-methyl-cyclopropylmethoxy)-benzo[b]thiophene-2-carboxylic acid (2H-tetrazol-5-yl)-amide], the figure is 20 nM. In the case of `COc1cc2sc(C(=O)Nc3nnn[nH]3)c(OC3CCCCCCC3)c2cc1OC` [Example 33, 3-Cyclooctyloxy-5,6-dimethoxy-benzo[b]thiophene-2-carboxylic acid (1H-tetrazol-5-yl)-amide], the IC50 turned out to be 48 nM. Take `COc1cc2sc(C(=O)Nc3nnn[nH]3)c(OC3CCCCC3C)c2cc1OC` (centres unmarked) [Example 26, 5,6-Dimethoxy-3-(2-methyl-cyclohexyloxy)-benzo[b]thiophene-2-carboxylic acid (1H-tetrazol-5-yl)-amide]: the IC50 was 101 nM. As for `COc1cc2sc(C(=O)Nc3nnn[nH]3)c(OCC3CCC3)c2cc1OC` [Example 38, 3-Cyclobutylmethoxy-5,6-dimethoxy-benzo[b]thiophene-2-carboxylic acid (1H-tetrazol-5-yl)-amide], the figure is 72 nM. The figure for `COc1cc2sc(C(=O)Nc3nnn[nH]3)c(OC3CCC3)c2cc1OC` [Example 40, 3-Cyclobutoxy-5,6-dimethoxy-benzo[b]thiophene-2-carboxylic acid (1H-tetrazol-5-yl)-amide] is 92 nM; for “3-(3,5-Dimethyl-cyclohexloxy)-5,6-dimethoxy-benzo[b]thiophene-2-carboxylic acid (1H-tetrazol-5-yl)-amide [Example 34]” it is 32 nM.
